Measurements published in a melting point compilation (Tetko et al.).

`Cc1ccc(-c2nc3ccccc3[nH]2)s1` showed a melting point of 259 to 261 °C.
For `O=C(O)c1cc(C2CC2)nn1-c1ccccc1`, the melting point was 138 to 140 °C.
Compound `Cc1nc(Cl)c(NN)nc1C` has a melting point of 134 to 136 °C.
For `N#Cc1ccc(CCC(=O)O)cc1`, the melting point was 137 to 139 °C.
`COc1ccccc1-c1nnc(CCl)o1` showed a melting point of 86 to 88 °C.
For `NC(=O)NC(CC(=O)O)c1ccccc1Cl` (stereo unspecified), the melting point was 163 to 165 °C.
`O=C(O)CCc1nnc[nH]1` gave a melting point of 127 to 129 °C.
`O=C(O)c1ccc(-c2ncon2)cc1` gave a melting point of 214 to 216 °C.
With `CCC(C)NC(=O)c1ccc(N)cc1` (stereo unspecified) the melting point was 101 to 104 °C.
In the case of `CCC(=O)c1ccc(Oc2ccccc2)cc1`, the melting point is reported as 39 to 41 °C.
Work on `O=C1NC(=O)C2(CCNC2)N1` (stereo unspecified) yielded a melting point of 201 to 203 °C.
With `Cc1n[nH]c(C)c1S(=O)(=O)Cl` the melting point was 60 to 65 °C.
Compound `Nc1cccnc1-n1cccn1` has a melting point of 65 to 67 °C.
With `Cc1nonc1C(=O)O` the melting point was 69 to 71 °C.
`CCOC(=O)c1c(N)sc2c1CCCS2=O` (stereo unspecified) gave a melting point of 189 to 191 °C.
With `Cc1nc(-c2ccccc2)ccc1C(=O)O` the melting point was 190 to 192 °C.
In the case of `O=Cc1ccc(-c2ccccc2)s1`, the melting point is reported as 90 to 92 °C.
For `NCc1nnc2n1CCCCC2`, the melting point was 70 to 72 °C.
With `CCOC(=O)CC(C)(O)c1cccc(O)c1` (stereo unspecified) the melting point was 85 to 87 °C.
Compound `Cc1nn(Cc2ccc(F)cc2)c2sc(C(=O)O)cc12` has a melting point of 227 to 229 °C.
In the case of `O=C(CN1C(=O)CCC1=O)c1ccccc1F`, the melting point is reported as 154 to 156 °C.
Work on `CCC(C)C(C)S(N)(=O)=O` (stereo unspecified) yielded a melting point of 44 to 46 °C.
Compound `N#Cc1ccc(CNc2ccc3[nH]c(=O)[nH]c3c2)cc1` has a melting point of 276 to 278 °C.
`CC1(c2ccc(C(=O)O)cc2)NC(=O)NC1=O` (stereo unspecified) gave a melting point of 279 to 281 °C.
In the case of `CC(C)(C)OC(=O)NC(C(=O)O)c1ccccc1` (stereo unspecified), the melting point is reported as 113 to 115 °C.
`NS(=O)(=O)c1cccc(O)c1` showed a melting point of 159 to 161 °C.
Compound `Cc1ccc(NC(=O)C(C)Cl)cc1S(=O)(=O)N1CCOCC1` (stereo unspecified) has a melting point of 151 to 153 °C.
Compound `COc1ccc(CC(=O)NN)cc1` has a melting point of 132 to 134 °C.
In the case of `Nc1ccc(-n2cc(S(N)(=O)=O)cn2)nc1`, the melting point is reported as 218 to 220 °C.
In the case of `COC(=O)C(CCl)NC(C)=O` (stereo unspecified), the melting point is reported as 74 to 76 °C.
In the case of `CC(C)(C)NCCC(N)=O`, the melting point is reported as 95 to 97 °C.
Compound `O=C(O)c1n[nH]c2ccc(Cl)cc12` has a melting point of 271 to 273 °C.
`Cc1ccc(-c2n[nH]cc2Br)cc1` gave a melting point of 104 to 106 °C.
For `NC(=NO)c1cccc(Cn2cnc3ccccc32)c1`, the melting point was 226 to 228 °C.
Work on `COc1ccc(S(=O)(=O)N(C)C)cc1N` yielded a melting point of 192 to 194 °C.
In the case of `COC(=O)C(=O)CC(=O)c1cc(OC)ccc1OC`, the melting point is reported as 85 to 90 °C.
In the case of `Cc1cc(C)c2ncc(C(=O)O)c(O)c2c1`, the melting point is reported as 282 to 284 °C.
`O=C(c1ccccc1)c1nccs1` showed a melting point of 40 to 42 °C.
For `O=C(NC1CCN(C(=O)CCl)CC1)c1ccccc1`, the melting point was 155 to 157 °C.
Compound `NS(=O)(=O)c1ccc(OCC(=O)O)c(F)c1` has a melting point of 177 to 179 °C.
`CCOC(=O)c1cc(C(=O)O)cc([N+](=O)[O-])c1` showed a melting point of 178 to 180 °C.
With `Cn1cnnc1S(=O)(=O)O` the melting point was 170 to 172 °C.
`Sc1nnc(NCc2ccco2)s1` showed a melting point of 124 to 126 °C.
With `O=C(O)c1cnsn1` the melting point was 167 to 169 °C.
`Nc1ccc(N2CCOCC2)c(S(=O)(=O)Nc2ccccc2Cl)c1` showed a melting point of 219 to 221 °C.
Compound `Cc1ccccc1-n1cc(C(=O)O)cn1` has a melting point of 106 to 108 °C.
In the case of `CCNC(=O)N1CCc2c(cccc2-n2nnc(C(=O)O)c2C)C1`, the melting point is reported as 200 to 202 °C.
Compound `Ic1ccc(OCc2ccccn2)cc1` has a melting point of 74 to 76 °C.
For `CC(C)CNc1nc(-c2ccccc2[N+](=O)[O-])cs1`, the melting point was 86 to 88 °C.
`CC(SCC(=O)Nc1cccc(Br)c1)C(=O)O` (stereo unspecified) gave a melting point of 106 to 108 °C.
`NC(C(=O)O)c1ccc2ccccc2c1` (stereo unspecified) gave a melting point of 251 to 253 °C.
For `COCCn1nnc(C(=O)O)c1C(F)(F)F`, the melting point was 55 to 57 °C.
In the case of `CC1COc2ccccc2C1O` (stereo unspecified), the melting point is reported as 95 to 97 °C.
`O=C(O)Cn1cn[nH]c1=O` showed a melting point of 217 to 219 °C.
For `O=C1C(=O)N(Cc2ccc(Cl)cc2)c2ccccc21`, the melting point was 163 to 165 °C.
In the case of `O=C(O)c1cccc(OCc2ccc(F)cc2)c1`, the melting point is reported as 143 to 145 °C.
For `CCOc1cccc(F)c1[N+](=O)[O-]`, the melting point was 34 to 36 °C.
With `COc1ccc(NS(=O)(=O)c2ccc(NN)c([N+](=O)[O-])c2)cc1` the melting point was 204 to 206 °C.
In the case of `Nc1cc(-c2ccsc2)no1`, the melting point is reported as 89 to 91 °C.
With `COc1cc2nc(C)oc(=O)c2cc1OC` the melting point was 187 to 189 °C.
In the case of `COc1nc(N2CCNCC2)ncc1Br`, the melting point is reported as 89 to 91 °C.
Work on `COC(=O)c1cc(-c2cccc(C(F)(F)F)c2)ccc1N` yielded a melting point of 72 to 74 °C.
`O=C(O)C1CCCn2c1n[nH]c2=O` (stereo unspecified) gave a melting point of 121 to 123 °C.
In the case of `CN(C)CCN1CC(C(=O)O)CC1=O` (stereo unspecified), the melting point is reported as 162 to 164 °C.
In the case of `O=C1/C(=C\C=C\c2ccco2)CCC/C1=C\C=C\c1ccco1`, the melting point is reported as 162 to 164 °C.
With `Cc1cccc(C(N)C(=O)O)c1` (stereo unspecified) the melting point was 229 to 231 °C.
For `CC(NO)c1ccc(F)cc1` (stereo unspecified), the melting point was 74 to 76 °C.
With `CS(=O)(=O)Nc1ccc(O)c(C(=O)O)c1` the melting point was 228 to 230 °C.
`Nc1ccc(-c2csc(N)n2)cc1` showed a melting point of 178 to 180 °C.
For `CC(C)(C)OC(=O)NCc1nnn[nH]1`, the melting point was 153 to 155 °C.
`CCCC(=O)Nc1ccc(Cl)c(N)c1` showed a melting point of 96 to 98 °C.
